# Assays:
# [1] = test system: Fibroblast Growth Factor Receptor 2 (FGFR2); assay: Cerebral cortex proteomics (LC-MS) after amlexanox treatment of mice; assay type: in vivo, mouse; details: 15-month-old WT mice, 25 mg/kg amlexanox for 5 days, right cerebral cortex; unadjusted p value of log2 fold change=0.0012
# Method: Drug administration and animal studies. […] Treatment groups were balanced for sex.
# Sample Preparation. Tissue homogenate was obtained using a Bead Mill Fast Prep-24 (MP Biomedicals). Tissue was transferred into a Lysing Matrix D tube with 750 μl of homogenization solution (5% SDS with MS-SAFE Protease and Phosphatase Inhibitor) and homogenized at 6 m/s for 40 s. Homogenate was centrifuged at 13.2×g for 10 min, the supernatant was transferred to a microcentrifuge tube and total protein was quantified with BCA.
# 10 μg of protein from each subject was digested with trypsin at a ratio of 1:20 using S-trap micro columns (Protifi) and desalted using Pierce Peptide Desalting Spin Columns (ThermoFisher Scientific). […]
# Peptide Data Analysis. Raw data files were analyzed with Proteome Discoverer (ThermoFisher Scientific) and searched against the mouse SwissProt database using Sequest HT (missed cleavages=2; minimum peptide length=6; precursor mass tolerance=10 ppm; dynamic modifications: Oxidation/+15.995 Da, Acetyl/+42.011 Da, Met-loss/−131.040 Da, Met-loss+Acetyl/[…]; static modifications: Carbamidomethyl/+57.021 Da). […]
# Statistical Analysis. […] Proteins with a combined Q-value=0.01 or greater, not quantified in 100% of samples or with CV>0.3 in pooled controls were filtered out. […]
# 2860 proteins were quantified in all mice. […] Other Fibroblast Growth Factor Receptors were not quantified in our assay.
# [2] = test system: mouse cerebral cortex proteome; assay: Signed Jaccard Index: overlap of amlexanox-induced protein perturbations in mice with effects of proteins on dendritic spines in humans; assay type: in vivo; details: amlexanox/control log2 protein abundances in mouse cerebral cortex vs effects of each protein on density of large dendritic spines in human cohort
# Method: then the net effect of amlexanox treatment was evaluated on proteins which, in our human data, were associated with age related dendritic spine density reductions. The Signed Jaccard Index (SJI) was calculated to estimate the net overlap of amlexanox-induced protein perturbations in mice with the effects of proteins on dendritic spines in humans. The relative log2-transformed abundances for each protein in amlexanox/control groups were compared with the effects of each protein on the density of large dendritic spines extracted from the mediation analysis from our human cohort (described in Example 1) as follows:
# An SJI of 0.013 compares favorably to the mean SJI reported for all drug-disease indication pairs (absolute value=0.004), indicating it is compatible with therapeutic activity. However, the SJI of 0.013 observed was lower in magnitude than the mean SJI reported for drug-disease pairs indicated specifically for CNS disorders (absolute value=0.033).
# [3] = mouse, in vivo, ip, 100 mg/kg
# Method: Drug administration and animal studies. […] A modified tolerability score was used to estimate drug tolerability. […] Male and female 15-month-old WT mice were randomly allocated to receive either 25 mg/kg amlexanox (n=9) or equivalent volume vehicle (n=10) for 5 days. Treatment groups were balanced for sex. On day 5, mice were sacrificed, perfused with normal saline, and the right cerebral cortex was isolated and immediately frozen on dry ice for proteomics.
smiles,measurement,setting,value
"CC(C)c1ccc2oc3nc(N)c(C(=O)O)cc3c(=O)c2c1 [amlexanox, Amlexanox]",relative abundance of FGFR2 (amlexanox/control),[1],0.69
same,Signed Jaccard Index (SJI),[2],0.013
same,modified tolerability score,[3],elevated tolerability scores
